These results are taken from patent US11312713B2, “Imidazo[4,5-C]quinoline derivatives as LRRK2 inhibitors” (Pfizer Inc., priority 2017, dated 2022).

This test has as its target LRRK2, WT (GST-tagged truncated LRRK2) (Homo sapiens, UniProt Q5S007). The test is described as follows: LRRK2 kinase assay (LanthaScreen), wild type. Type of test: biochemical. The following applies: LanthaScreen, LRRKtide substrate. The method, then: LRRK2 kinase activity was measured using Lantha Screen technology from Invitrogen. GST-tagged truncated LRRK2 from Invitrogen (Cat #PV4874) was incubated with a fluorescein-labeled peptide substrate based upon ezrin/radixin/moesin (ERM), also known as LRRKtide (Invitrogen cat #PR8976A), in the presence of a dose response of compound. Upon completion, the assay was stopped and detected with a terbium labeled anti-phospho-ERM antibody (Invitrogen, cat #PR8975A). […] Using Echo acoustic dispensing, 60 nL of compound was transferred to a low volume Corning 384-well assay plate. 3 μL of a working solution of substrate (200 nM LRRKtide, 2 mM ATP) prepared in assay buffer (50 mM HEPES, pH 7.5, 3 mM MgCl2, with 2 mM DTT and 0.01% Brij35 added fresh) was added to the 60 nL compound assay plate. The kinase reaction was started with 3 μL of a working solution of LRRK2 enzyme at a concentration of 4 μg/m L. The final reaction concentrations were 100 nM LRRKtide, 1 mM ATP, 2 μg/mL LRRK2 enzyme and a compound dose response with a top dose of 3 μM. The reaction was allowed to progress at room temperature for 30 minutes and then stopped with the addition of 6 μL of detection buffer (20 mM Tris pH 7.6, 0.01% NP-40, 6 mM EDTA with 2 nM terbium labeled antiphospho-ERM). […] All final concentrations of substrate ATP and enzyme were the same.
A general note: Time-resolved FRET reads energy transfer from a long-lived donor to a nearby acceptor.

In general, IC50 refers to the concentration that gives 50% inhibition. High values mean lower potency, low ones higher potency.

Molecule `COCc1cn(Cc2nc3cnc4ccc(F)cc4c3n2C2CN(C)CC2(F)F)nn1` (stereo not drawn) [enantiomer of Example 53, 1-(4,4-difluoro-1-methylpyrrolidin-3-yl)-8-fluoro-2-{[4-(methoxymethyl)-1H-1,2,3-triazol-1-yl]methyl}-1H-imidazo[4,5-c]quinoline] had an IC50 (1 mM ATP) of 229 nM.

`Cc1nc(Cc2nc3cnc4ccc(Cl)cc4c3n2C2CN(C)CC2(F)F)no1` (stereo not drawn) [enantiomer of Example 88, 8-chloro-1-(4,4-difluoro-1-methylpyrrolidin-3-yl)-2-[(5-methyl-1,2,4-oxadiazol-3-yl)methyl]-1H-imidazo[4,5-c]quinoline] registered a 50% inhibitory concentration (IC50) (1 mM ATP) of 261 nM.

For `N#CCC1CC(n2c(C3CCC3)nc3cnc4ccc(Cl)cc4c32)CCO1` (stereo not drawn) [Example 10, [cis-4-(8-Chloro-2-cyclobutyl-1H-imidazo[4,5-c]quinolin-1-yl)tetrahydro-2H-pyran-2-yl]acetonitrile], the IC50 (wild type LRRK2) stood at 1790 nM.

Consider `Cc1cnn(Cc2nc3cnc4ccc(Cl)cc4c3n2C2CN(C)CC2(F)F)n1` (stereo not drawn) [enantiomer of Example 87, 8-chloro-1-(4,4-difluoro-1-methylpyrrolidin-3-yl)-2-[(4-methyl-2H-1,2,3-triazol-2-yl)methyl]-1H-imidazo[4,5-c]quinoline], for which, for the setting “1 mM ATP”, inhibition was half-maximal at 37.8 nM (IC50).

On to `FC1(F)COCCC1n1c(Cn2cncn2)nc2cnc3ccc(Cl)cc3c21` (stereo not shown) [Example 54, 8-chloro-1-(3,3-difluorotetrahydro-2H-pyran-4-yl)-2-(1H-1,2,4-triazol-1-ylmethyl)-1H-imidazo[4,5-c]quinoline], for which the 50% inhibitory concentration (IC50) was determined as 10.3 nM (1 mM ATP) and 10.3 nM (wild type LRRK2).

In turn, `CN1CC(n2c(Cn3cnnn3)nc3cnc4ccc(Cl)cc4c32)C(F)(F)C1` (stereo not drawn) [enantiomer of Example 86, 8-chloro-1-(4,4-difluoro-1-methylpyrrolidin-3-yl)-2-(1H-tetrazol-1-ylmethyl)-1H-imidazo[4,5-c]quinoline] returned a half-inhibitory concentration (IC50) (1 mM ATP) of 271 nM.

Where the note is “1 mM ATP”, `CC(C#N)Cc1nc2cnc3ccc(Cl)cc3c2n1[C@@H]1CCO[C@H](C)C1` (stereo partly drawn) [diastereomer of Example 78, 3-{8-chloro-1-[(2R,4R)-2-methyltetrahydro-2H-pyran-4-yl]-1H-imidazo[4,5-c]quinolin-2-yl}-2-methylpropanenitrile] gave a half-maximal inhibitory concentration (IC50) of 37.2 nM.

Take `Cc1cc(Cc2nc3cnc4ccc(Cl)cc4c3n2[C@H]2CCO[C@@H](C(F)F)C2)no1` (relative stereo) [enantiomer of Example 59, 8-chloro-1-[cis-2-(difluoromethyl)tetrahydro-2H-pyran-4-yl]-2-[(5-methyl-1,2-oxazol-3-yl)methyl]-1H-imidazo[4,5-c]quinoline]: where the note is “1 mM ATP”, the concentration for half-maximal inhibition (IC50) amounted to 631 nM.

For `Fc1ccc2ncc3nc(Cc4csnn4)n([C@H]4CC[C@@H](F)C4)c3c2c1` (relative stereo) [enantiomer of Example 79, 8-fluoro-1-[cis-3-fluorocyclopentyl]-2-(1,2,3-thiadiazol-4-ylmethyl)-1H-imidazo[4,5-c]quinoline], half-maximal inhibition (1 mM ATP) (IC50) was put at 7.54 nM.

For the setting “1 mM ATP”, `Cc1nn2cc(Cc3nc4cnc5ccc(F)cc5c4n3C3CN(C)CC3(F)F)nc2s1` (stereo not drawn) [enantiomer of Example 85, 1-(4,4-difluoro-1-methylpyrrolidin-3-yl)-8-fluoro-2-[(2-methylimidazo[2,1-b][1,3,4]thiadiazol-6-yl)methyl]-1H-imidazo[4,5-c]quinoline] had a half-maximal inhibitory concentration (IC50) of 55.9 nM.

For `FC1(F)COCCC1n1c(Cn2cc(C3CC3)nn2)nc2cnc3ccc(Cl)cc3c21` (stereo not drawn) [enantiomer of Example 94, 8-chloro-2-[(4-cyclopropyl-1H-1,2,3-triazol-1-yl)methyl]-1-(3,3-difluorotetrahydro-2H-pyran-4-yl)-1H-imidazo[4,5-c]quinoline], for the setting “1 mM ATP”, half-maximal inhibition (IC50) required 9.35 nM.

For `Cc1nnn(Cc2nc3cnc4ccc(Cl)cc4c3n2C2CN(C)CC2(F)F)n1` (stereo not drawn) [enantiomer of Example 49, 8-chloro-1-(4,4-difluoro-1-methylpyrrolidin-3-yl)-2-[(5-methyl-2H-tetrazol-2-yl)methyl]-1H-imidazo[4,5-c]quinoline], the midpoint of inhibition (1 mM ATP), the IC50, lay at 46.2 nM.
